Assay results published in US10633542B2, “Azacyanine dyes and use thereof” (Ecole Polytechnique Fédérale de Lausanne (EPFL), priority 2018, dated 2020).
Values joined by “and” are separate entries in the source; they are usually repeats but may differ in a detail not shown here. Identical values can stand only once.

Assays:
[1] = in methanol, calibration standard; cited from earlier work
[2] = cited from earlier work
[3] = tested on: sliced skin tissue of a nude mouse (dry-ice treated); experiment: Ex vivo cell death assay, cryogenic tissue damage; details: 1 uM, 5 uM, 10 uM, 10 min at room temperature
Description: Ex vivo cell death assay for compounds, VI and XIV were studied using a method of cryogenic tissue damage. Briefly, a bar of a dry ice was applied to sliced skin tissue of a nude mouse recently sacrificed in a petri dish for a period of 60 sec. Subsequently, the skin tissue samples were incubated with different concentrations of dye VI and XIV (1 uM, 5 uM, and 10 uM) for 10 min at room temperature.

[4] = Shortwave infrared / NIR-II imaging with SWIR camera system; format: physicochemical; details: commercial SWIR camera system
Text: It was already shown that in the NIR-II region there is less absorption and […] enabling 2 times deeper imaging with much higher resolution respectively. […] The results are shown on FIG. 24. The camera used for obtaining the data has the following specs: “Princeton NIRvana detector, IsoPlane SCT320 spectrometer, Nikon inverted microscope, 658 nm, 785 nm and Xenon lamp/monochromator illumination sources” The other derivatives of aza-cyanine analogs covered in the current invention are currently being tested to find the optimal SWIR imaging dye.

[5] = tested on: necrotic tissue; experiment: Necrosis imaging in vivo after cardiotoxin injection; parameters: species or system mouse
Description: Cardiotoxin (10 μM in 50 μL of PBS) was injected into the right thigh of the mouse and 50 μL of PBS was injected into the left thigh. 24 hours post-injection of toxin, Compound VIII ([…] in 100 μL PBS) was injected intravenously into the tail of the mouse. […] The results are shown below in FIG. 20-22. The brightnesses of the images are not on scale with one another. The quantification is shown on the same graph. Significant signal over-background ratios resulting from accumulation of the dye in necrosis areas observed as early as 10 min post-injection of the Compound VIII making it ideal for clinical translation.

[6] = tested on: A431 cells; experiment: Cell uptake in live cells; format: cell-based; details: for Average values: average of wells; for Avg Radiant Efficiency: single wells
Description: Therefore, we performed such experiments in live cells with Compound VIII compound. […] The following procedure was used:
Cells were grown in 96 well plates to confluent level. Media was removed, cells washed with PBS, incubated for a set time (5, 15, or 30 minutes) at varying concentrations of the dye (5 μM, 10 μM, and 25 μM) in PBS. Dye was removed, cells washed twice with PBS, then PBS added for imaging.
The values for each well were consistent with that of the control group of wells that were not exposed to the dye in wells A1-A3. The bright well at F12 is a solution of Compound VIII at 5 μM in PBS to insure imaging of the dye is occurring.

CC1(C)C(/C=C/C=C/C=C/C=C2\N(CCCCS(=O)(=O)O)c3ccc4ccccc4c3C2(C)C)=[N+](CCCCS(=O)(=O)[O-])c2ccc3ccccc3c21 [ICG, Indocyanine Green]
fluorescence quantum yield (QY) [1]: 7.8% | solubility in saline [2]: not readily soluble

CC1(C)C2=CC=CN(CCCCCC(=O)O)C2=N/C1=C/C=C1\C[N+](C)(C)CC(/C=C/C2=Nc3c(ccc[n+]3CCCCCC(=O)O)C2(C)C)=C1Cl [dye VI]
fluorescence at the site of focal dry-ice treatment [3]: strong fluorescence signal | signal from the viable cells [3]: no signal | absorption in the NIR-II region [4]: absorbs in the NIR-II region

CN1C=CC=C2C1=N/C(=C\C=C1/C[N+](C)(C)CC(/C=C/C3=Nc4c(ccc[n+]4C)C3(C)C)=C1Cl)C2(C)C.I [Compound VIII]
targeting of necrotic area in vivo ([5]; cardiotoxin in right thigh, dye 40 μmoles in 100 μL PBS intravenously 24 hours later): selectively targets the necrotic area | clearance route ([5]; mouse, intravenous): clears through the kidneys instead of accumulating in the liver | time post-injection at which significant signal over-background ratios are observed ([5]; mouse, intravenous): 10 min | Average values ([6]; 5 μM, 5 minutes): 1.49E+07 [p/s/cm^2/sr]/[μW/cm^2] | Avg Radiant Efficiency ([6]; 5 μM, 5 minutes): 1.64E+07 [p/s/cm^2/sr]/[μW/cm^2] and 1.47E+07 [p/s/cm^2/sr]/[μW/cm^2] and 1.36E+07 [p/s/cm^2/sr]/[μW/cm^2] | Average values ([6]; 5 μM, 15 minutes): 1.24E+07 [p/s/cm^2/sr]/[μW/cm^2] | Avg Radiant Efficiency ([6]; 5 μM, 15 minutes): 1.29E+07 [p/s/cm^2/sr]/[μW/cm^2] and 1.23E+07 [p/s/cm^2/sr]/[μW/cm^2] and 1.19E+07 [p/s/cm^2/sr]/[μW/cm^2] | Average values ([6]; 5 μM, 30 minutes): 1.17E+07 [p/s/cm^2/sr]/[μW/cm^2] | Avg Radiant Efficiency ([6]; 5 μM, 30 minutes): 1.18E+07 [p/s/cm^2/sr]/[μW/cm^2] and 1.16E+07 [p/s/cm^2/sr]/[μW/cm^2] and 1.17E+07 [p/s/cm^2/sr]/[μW/cm^2] | Average values ([6]; 10 μM, 5 minutes): 1.39E+07 [p/s/cm^2/sr]/[μW/cm^2] | Avg Radiant Efficiency ([6]; 10 μM, 5 minutes): 1.50E+07 [p/s/cm^2/sr]/[μW/cm^2] and 1.39E+07 [p/s/cm^2/sr]/[μW/cm^2] and 1.28E+07 [p/s/cm^2/sr]/[μW/cm^2] | Average values ([6]; 10 μM, 15 minutes): 1.20E+07 [p/s/cm^2/sr]/[μW/cm^2] | Avg Radiant Efficiency ([6]; 10 μM, 15 minutes): 1.24E+07 [p/s/cm^2/sr]/[μW/cm^2] and 1.18E+07 [p/s/cm^2/sr]/[μW/cm^2] and 1.17E+07 [p/s/cm^2/sr]/[μW/cm^2] | Average values ([6]; 10 μM, 30 minutes): 1.15E+07 [p/s/cm^2/sr]/[μW/cm^2] | Avg Radiant Efficiency ([6]; 10 μM, 30 minutes): 1.16E+07 [p/s/cm^2/sr]/[μW/cm^2] and 1.15E+07 [p/s/cm^2/sr]/[μW/cm^2] and 1.13E+07 [p/s/cm^2/sr]/[μW/cm^2] | Average values ([6]; 25 μM, 5 minutes): 1.33E+07 [p/s/cm^2/sr]/[μW/cm^2] | Avg Radiant Efficiency ([6]; 25 μM, 5 minutes): 1.39E+07 [p/s/cm^2/sr]/[μW/cm^2] and 1.34E+07 [p/s/cm^2/sr]/[μW/cm^2] and 1.27E+07 [p/s/cm^2/sr]/[μW/cm^2] | Average values ([6]; 25 μM, 15 minutes): 1.20E+07 [p/s/cm^2/sr]/[μW/cm^2] | Avg Radiant Efficiency ([6]; 25 μM, 15 minutes): 1.22E+07 [p/s/cm^2/sr]/[μW/cm^2] and 1.20E+07 [p/s/cm^2/sr]/[μW/cm^2] and 1.19E+07 [p/s/cm^2/sr]/[μW/cm^2] | Average values ([6]; 25 μM, 30 minutes): 1.20E+07 [p/s/cm^2/sr]/[μW/cm^2] | Avg Radiant Efficiency ([6]; 25 μM, 30 minutes): 1.20E+07 [p/s/cm^2/sr]/[μW/cm^2] | uptake in live A431 cells ([6]; long incubation periods (30 min), high concentrations (25 uM)): No uptake | radiance of wells incubated with the dye compared to that of the control ([6]; wells B1-C10, 5-25 μM, 5-30 minutes): no significant difference | absorption in the NIR-II region [4]: absorbs in the NIR-II region

CC1(C)C2=CC=CN(CCCCCC(=O)O)C2=N/C1=C/C=C1\C[N+](C)(C)CC(/C=C/C2=Nc3c(ccc[n+]3CCCCCC(=O)O)C2(C)C)=C1Oc1ccc(S(=O)(=O)O)cc1.[Na+] [dye XIV]
fluorescence at the site of focal dry-ice treatment [3]: strong accumulation of fluorescence
